According to patent US20060258597A1, “Antitumorigenic drug combination and dosing schedule” (priority 2005, published 2006):
[ ]: non-standard residue; d: D form. d(aIle) = CC[C@H](C)[C@@H](N)C(=O)O; Nva = CCC[C@H](N)C(=O)O; Sar = CNCC(=O)O

Tested on: HT-1080 cells
Assay: HT-1080 tumor growth inhibition in SCID mice (subcutaneous flank xenograft)
Type: in vivo
Conditions: peptide 120 Mpk BID SC and/or bevacizumab 3.0 Mpk twice per week SC; for % T/C: size of tumor treated/control
Procedure: Female SCID mice (Charles River Laboratories, Wilmington, Mass., USA) with an average body weight of 18.7 g were inoculated subcutaneously into the right flank with 0.1 mL of about 0.5×10^6 HT-1080 cells (1:1 matrigel) on a Friday. Day 3, post inoculation (Monday), the mice were ear tagged and randomized into groups of ten control and treated groups. The representative prodrug of a peptidomimetic of the second of the three Type-1 repeats of TSP-1, N-Ac-Sar-Gly-Val-D-alloIle-Thr-Nva-Ile-Arg-Pro-NHCH2CH3 (120 mpk), was administered twice per day (BID) during the dosing regimen, and the representative […] bevacizumab (3 mpk) was administrated each Monday and Wednesday during the same dosing regimen. Tumors were measured with calipers every Monday, Wednesday and Friday days beginning at day 3, post inoculation. Tumor volumes were calculated according to the formula V=L×W^2/2, wherein V is volume (mm^3), L is length and W is width. Antitumorigenesis was measured by percent tumor growth inhibition (TGI).
The term “mpk,” as used herein, means milligrams drug per kilogram mammal.
The term “SE,” as used herein, means standard error.
The term “T/C,” as used herein, means size of tumor (treated/control).
The term “SC,” as used herein, means subcutaneously.
The term “p-value,” as used herein, means confidence level of comparison to control.
Controls comprised vehicle only. Vehicles for N-Ac-Sar-Gly-Val-D-alloIle-Thr-Nva-Ile-Arg-Pro-NHCH2CH3 and bevacizumab were D5W (5% glucose in water) and isotonic saline (0.9% NaCl in water), respectively.

| Substance | % TGI (percent tumor growth inhibition) (Day 7) [%] | % T/C (Day 7) [%] | % TGI (percent tumor growth inhibition) (Day 10) [%] | % T/C (Day 10) [%] | % TGI (percent tumor growth inhibition) (Day 12) [%] | % T/C (Day 12) [%] | % TGI (percent tumor growth inhibition) (Day 14) [%] | % T/C (Day 14) [%] |
| --- | --- | --- | --- | --- | --- | --- | --- | --- |
| Ac-[Sar]GV[d(aIle)]T[Nva]IRP-NHEt | 30.24 | 69.76 | 41.61 | 58.39 | 44.30 | 55.70 | 48.79 | 51.21 |
| bevacizumab | 33.68 | 66.32 | 39.40 | 60.60 | 39.25 | 60.75 | 58.30 | 41.70 |
